Assay results from publication PMC9329436, “Optimization of the 4-anilinoquin(az)oline scaffold as epidermal growth factor receptor (EGFR) inhibitors for chordoma utilizing a toxicology profiling assay platform” (Scientific Reports, 2022).
Like-named read-outs stand apart in the source and are kept apart here.

Assays:
EGFR = EGFR (Homo sapiens, UniProt P00533); assay: ProQinase in-cell EGFR assay (EGFR phosphorylation in A431 cells); type: cell-based; parameters: This cell line endogenously expresses a high level of EGFR; endogenous in cells; host or cells: A431
Source text: In addition, we ran an EGFR in-cell target engagement assay, measuring in-cell EGFR phosphorylation, using the human epidermoid carcinoma cell line A431. This cell line endogenously expresses a high level of EGFR, and stimulation of these cells with human epidermal growth factor (EGF) results in receptor tyrosine autophosphorylation.

U-CH2 chordoma cell line = assay: Cell viability assay (alamarBlue, 72 h), U-CH2; type: cell-based, human; details: n = 4, 72 h
Summary of the method: (§1)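 Cells grown in 4:1 IMDM:RPMI with 10% FBS on gel-coated flasks, dosed in quadruplicate 24 h after seeding in 384-well plates.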

U-CH1 chordoma cell line = assay: Cell viability assay (alamarBlue, 72 h), U-CH1; type: cell-based, human; details: n = 4, 72 h
Summary of the method: as §1

[1] = biological target: 320 wild-type protein kinases (Homo sapiens, UniProt Q06187); type: biochemical; details: BTK, singlicate
Source text: (§2) Table S4. Profiling of two compounds at two concentrations against 320 wild-type protein kinases; singlicate measurement; Residual activities (% of control).

[2] = biological target: 320 wild-type protein kinases (Homo sapiens, UniProt Q9P1W9); type: biochemical; details: singlicate
Source text: as §2

[3] = biological target: 320 wild-type protein kinases (Homo sapiens, UniProt P45984); type: biochemical; details: singlicate
Source text: as §2

[4] = biological target: 320 wild-type protein kinases (Homo sapiens, UniProt Q9UEW8); type: biochemical; details: kinase STK39, singlicate
Source text: as §2

[5] = biological target: 320 wild-type protein kinases (Homo sapiens, UniProt Q15746); type: biochemical; details: MYLK, singlicate
Source text: as §2

[6] = system: WS1 human fibroblast cell line; assay: Cell viability assay, WS1 toxicity control; type: cell-based; details: n = 4, nonspecific toxicity control
Summary of the method: (§3)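 Patient-derived chordoma lines and WS1 fibroblasts seeded in 384-well plates, dosed in quadruplicate 24 h after plating.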

[7] = system: UM-Chor1 patient-derived chordoma cell line; assay: Cell viability assay (alamarBlue, 72 h), UM-Chor1; type: cell-based, human; details: n = 4, 72 h
Summary of the method: as §3

[8] = system: U-CH7 patient-derived chordoma cell line; assay: Cell viability assay (alamarBlue, 72 h), U-CH7; type: cell-based, human; details: n = 4, 72 h
Summary of the method: as §3

HL60 cells = assay: AsedaSciences SYSTEMETRIC Cell Health Screen (flow cytometry toxicity profiling); details: HL60, 4 h, 5 nM–100 µM; for CC: Cell Cycle score / CM: Cell morphology score / CMI: Cell membrane integrity score / GSH: Glutathione score / MMP: Mitochondrial membrane depolarization score / NMI1: Nuclear membrane integrity 1 score / NMI2: Nuclear membrane integrity 2 score / ROS: Reactive superoxide species score: probability 0–1, n = 2; for CHI: Cell Health Index: probability (0–1) of high-risk class, n = 2
Summary of the method: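 HL60 cells (100,000 per well) exposed 4 h at 37 °C, 5% CO2 to 10-step 3× dilutions (5 nM–100 µM), in duplicate. Cells then stained with mitochondrial and cell-stress reporter dyes and read by ungated flow cytometry over twelve parameters. Cell Health Index and eight endpoint scores come from an ML classifier trained on 300 high/low-risk compounds.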

[9] = ProQinase in-cell EGFR assay, A431 cells, n = 1

320 wild-type protein kinases (Homo sapiens, UniProt Q9P1W9), sequence (Q9P1W9 whole entry): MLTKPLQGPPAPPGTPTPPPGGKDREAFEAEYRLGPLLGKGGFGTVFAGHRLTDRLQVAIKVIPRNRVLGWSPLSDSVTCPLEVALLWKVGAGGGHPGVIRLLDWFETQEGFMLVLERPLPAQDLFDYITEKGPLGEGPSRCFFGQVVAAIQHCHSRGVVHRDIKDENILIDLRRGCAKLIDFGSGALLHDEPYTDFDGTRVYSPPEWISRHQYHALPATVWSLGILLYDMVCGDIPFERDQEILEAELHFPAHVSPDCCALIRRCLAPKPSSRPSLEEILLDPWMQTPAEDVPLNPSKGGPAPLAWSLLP
EGFR, sequence (P00533 25-1210): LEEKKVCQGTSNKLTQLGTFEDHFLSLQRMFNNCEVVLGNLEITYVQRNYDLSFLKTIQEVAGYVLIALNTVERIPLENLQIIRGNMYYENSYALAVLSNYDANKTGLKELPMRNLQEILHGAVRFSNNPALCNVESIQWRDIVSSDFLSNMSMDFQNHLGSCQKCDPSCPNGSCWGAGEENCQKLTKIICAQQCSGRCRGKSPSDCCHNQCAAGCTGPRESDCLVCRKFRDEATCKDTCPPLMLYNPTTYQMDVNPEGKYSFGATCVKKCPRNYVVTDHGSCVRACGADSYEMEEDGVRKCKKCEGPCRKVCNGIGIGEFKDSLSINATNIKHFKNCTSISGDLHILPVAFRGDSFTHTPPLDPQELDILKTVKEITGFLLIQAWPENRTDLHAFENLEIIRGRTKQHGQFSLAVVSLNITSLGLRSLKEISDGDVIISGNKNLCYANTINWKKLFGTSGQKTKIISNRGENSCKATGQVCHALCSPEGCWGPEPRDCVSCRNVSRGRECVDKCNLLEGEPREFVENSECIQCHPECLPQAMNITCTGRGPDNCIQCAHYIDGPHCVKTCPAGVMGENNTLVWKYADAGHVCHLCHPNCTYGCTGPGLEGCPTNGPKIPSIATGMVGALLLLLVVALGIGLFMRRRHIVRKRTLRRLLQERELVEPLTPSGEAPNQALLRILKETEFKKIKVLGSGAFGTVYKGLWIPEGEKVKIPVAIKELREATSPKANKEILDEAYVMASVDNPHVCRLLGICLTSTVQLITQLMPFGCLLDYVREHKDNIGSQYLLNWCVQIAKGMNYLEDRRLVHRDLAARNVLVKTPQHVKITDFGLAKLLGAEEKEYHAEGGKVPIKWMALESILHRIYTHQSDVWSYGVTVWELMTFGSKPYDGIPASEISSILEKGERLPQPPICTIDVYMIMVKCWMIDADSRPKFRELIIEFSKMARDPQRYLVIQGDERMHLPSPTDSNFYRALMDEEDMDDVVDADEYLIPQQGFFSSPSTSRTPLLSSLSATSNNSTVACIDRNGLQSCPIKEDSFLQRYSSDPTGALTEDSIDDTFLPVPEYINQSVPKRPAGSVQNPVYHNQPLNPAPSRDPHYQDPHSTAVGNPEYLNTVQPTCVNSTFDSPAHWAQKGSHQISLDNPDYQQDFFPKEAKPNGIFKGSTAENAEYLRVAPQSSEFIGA
320 wild-type protein kinases (Homo sapiens, UniProt P45984), sequence (P45984 whole entry): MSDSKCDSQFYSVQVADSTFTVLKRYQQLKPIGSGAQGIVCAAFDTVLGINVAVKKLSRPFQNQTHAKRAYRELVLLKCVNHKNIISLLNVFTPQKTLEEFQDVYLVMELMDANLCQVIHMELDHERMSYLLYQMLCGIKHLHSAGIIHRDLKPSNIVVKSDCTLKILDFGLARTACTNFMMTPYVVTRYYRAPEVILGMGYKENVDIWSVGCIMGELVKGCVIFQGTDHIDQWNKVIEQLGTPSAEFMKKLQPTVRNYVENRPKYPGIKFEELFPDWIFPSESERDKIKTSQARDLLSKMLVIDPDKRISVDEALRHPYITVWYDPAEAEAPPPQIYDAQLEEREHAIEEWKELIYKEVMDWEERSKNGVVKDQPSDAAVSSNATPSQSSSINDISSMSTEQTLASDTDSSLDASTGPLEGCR
320 wild-type protein kinases (Homo sapiens, UniProt Q15746), sequence (Q15746 whole entry): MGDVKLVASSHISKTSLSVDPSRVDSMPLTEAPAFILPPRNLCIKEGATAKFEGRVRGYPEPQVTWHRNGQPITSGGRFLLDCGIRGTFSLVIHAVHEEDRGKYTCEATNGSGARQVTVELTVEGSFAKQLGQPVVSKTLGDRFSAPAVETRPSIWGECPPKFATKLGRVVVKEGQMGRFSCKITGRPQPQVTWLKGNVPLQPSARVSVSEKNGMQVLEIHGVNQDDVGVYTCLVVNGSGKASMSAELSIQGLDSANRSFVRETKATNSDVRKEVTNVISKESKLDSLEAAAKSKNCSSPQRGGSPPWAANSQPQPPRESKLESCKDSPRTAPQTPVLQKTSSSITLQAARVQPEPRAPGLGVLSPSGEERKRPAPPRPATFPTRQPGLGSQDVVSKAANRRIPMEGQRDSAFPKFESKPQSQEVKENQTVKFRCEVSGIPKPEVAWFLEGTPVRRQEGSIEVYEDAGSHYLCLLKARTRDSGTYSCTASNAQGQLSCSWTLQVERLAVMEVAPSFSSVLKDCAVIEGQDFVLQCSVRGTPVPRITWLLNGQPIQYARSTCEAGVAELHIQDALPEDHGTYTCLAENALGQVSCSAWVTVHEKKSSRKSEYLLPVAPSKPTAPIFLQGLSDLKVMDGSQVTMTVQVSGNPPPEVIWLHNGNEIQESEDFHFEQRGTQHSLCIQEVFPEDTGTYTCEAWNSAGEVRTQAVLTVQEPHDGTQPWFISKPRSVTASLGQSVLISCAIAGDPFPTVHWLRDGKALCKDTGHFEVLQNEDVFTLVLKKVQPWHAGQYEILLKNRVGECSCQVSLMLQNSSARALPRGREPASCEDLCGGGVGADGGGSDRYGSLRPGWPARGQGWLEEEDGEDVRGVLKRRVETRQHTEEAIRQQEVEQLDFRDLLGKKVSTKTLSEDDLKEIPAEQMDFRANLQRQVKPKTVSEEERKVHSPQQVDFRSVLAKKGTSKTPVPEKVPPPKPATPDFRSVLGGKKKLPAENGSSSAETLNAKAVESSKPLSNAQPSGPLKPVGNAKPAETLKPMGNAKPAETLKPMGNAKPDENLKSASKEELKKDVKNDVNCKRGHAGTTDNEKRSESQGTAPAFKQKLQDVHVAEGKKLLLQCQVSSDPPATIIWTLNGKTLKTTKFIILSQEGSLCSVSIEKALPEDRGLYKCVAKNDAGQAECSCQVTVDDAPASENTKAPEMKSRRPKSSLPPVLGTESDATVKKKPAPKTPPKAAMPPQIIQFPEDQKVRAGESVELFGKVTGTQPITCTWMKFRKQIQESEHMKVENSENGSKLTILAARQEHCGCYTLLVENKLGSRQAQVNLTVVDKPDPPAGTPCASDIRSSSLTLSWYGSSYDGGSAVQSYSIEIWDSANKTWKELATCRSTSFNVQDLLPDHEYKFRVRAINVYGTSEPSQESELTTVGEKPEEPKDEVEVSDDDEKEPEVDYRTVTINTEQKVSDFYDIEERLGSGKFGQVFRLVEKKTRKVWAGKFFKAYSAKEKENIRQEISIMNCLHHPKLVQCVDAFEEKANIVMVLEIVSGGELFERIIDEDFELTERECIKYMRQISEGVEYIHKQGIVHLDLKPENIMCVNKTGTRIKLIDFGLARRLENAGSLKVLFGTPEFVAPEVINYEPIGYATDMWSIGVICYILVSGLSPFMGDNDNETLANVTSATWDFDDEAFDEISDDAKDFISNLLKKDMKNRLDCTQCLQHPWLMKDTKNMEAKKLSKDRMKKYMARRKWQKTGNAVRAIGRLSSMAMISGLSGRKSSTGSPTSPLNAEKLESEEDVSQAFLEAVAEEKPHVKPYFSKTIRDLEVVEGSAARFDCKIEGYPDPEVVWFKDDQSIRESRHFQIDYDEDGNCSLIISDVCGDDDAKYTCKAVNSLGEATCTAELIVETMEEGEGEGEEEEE
320 wild-type protein kinases (Homo sapiens, UniProt Q06187), sequence (Q06187 whole entry): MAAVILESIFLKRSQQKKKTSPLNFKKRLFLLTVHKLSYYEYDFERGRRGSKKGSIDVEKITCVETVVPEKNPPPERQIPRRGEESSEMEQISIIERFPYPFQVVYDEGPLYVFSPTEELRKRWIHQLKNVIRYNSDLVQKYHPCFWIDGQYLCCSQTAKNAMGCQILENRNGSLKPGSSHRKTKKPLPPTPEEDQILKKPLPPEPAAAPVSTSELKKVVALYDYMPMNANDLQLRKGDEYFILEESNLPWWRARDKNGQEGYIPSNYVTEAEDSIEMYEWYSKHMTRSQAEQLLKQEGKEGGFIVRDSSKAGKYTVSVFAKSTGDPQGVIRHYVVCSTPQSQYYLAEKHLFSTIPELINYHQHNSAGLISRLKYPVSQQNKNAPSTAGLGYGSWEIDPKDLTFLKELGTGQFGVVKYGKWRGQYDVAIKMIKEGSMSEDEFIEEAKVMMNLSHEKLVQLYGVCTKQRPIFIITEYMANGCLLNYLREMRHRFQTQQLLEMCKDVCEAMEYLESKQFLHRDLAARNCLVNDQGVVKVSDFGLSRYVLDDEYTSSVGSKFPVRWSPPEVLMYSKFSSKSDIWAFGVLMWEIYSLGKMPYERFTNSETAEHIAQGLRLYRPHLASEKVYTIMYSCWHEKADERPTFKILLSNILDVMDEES

| SMILES | IC50 (EGFR; [9]) | IC50 (U-CH2 chordoma cell line) | IC50 (U-CH1 chordoma cell line) | Residual activity ([1]; 1.0E-06 M) | Residual activity ([1]; 1.0E-07 M) | Residual activity ([2]; PIM2, 1.0E-06 M) | Residual activity ([2]; PIM2, 1.0E-07 M) | Residual activity ([3]; JNK2, 1.0E-06 M) | Residual activity ([3]; JNK2, 1.0E-07 M) | Residual activity, STK39 ([4]; assay conc. 1.0E-06 M) | Residual activity, STK39 ([4]; assay conc. 1.0E-07 M) | Residual activity ([5]; 1.0E-06 M) | Residual activity ([5]; 1.0E-07 M) | IC50 [6] | IC50 [7] | IC50 [8] | CC: Cell Cycle score (HL60 cells) | CM: Cell morphology score (HL60 cells) | CMI: Cell membrane integrity score (HL60 cells) | GSH: Glutathione score (HL60 cells) | also measured |
| --- | --- | --- | --- | --- | --- | --- | --- | --- | --- | --- | --- | --- | --- | --- | --- | --- | --- | --- | --- | --- | --- |
| C#Cc1cc(Nc2ncnc3cc(I)ccc23)ccc1Cl [Compound 41] | 3.7 µM | 16 µM | 9.1 µM | 100 % of control | 103 % of control | 101 % of control | 112 % of control | 116 % of control | 110 % of control | 98 % of control | 106 % of control | 58 % of control | 98 % of control | 36 µM | 25 µM | 8 µM | 0.91 | 1.00 | 1.00 | 0.99 | MMP: Mitochondrial membrane depolarization score (HL60 cells): 1.00; NMI1: Nuclear membrane integrity 1 score (HL60 cells): 1.00; NMI2: Nuclear membrane integrity 2 score (HL60 cells): 1.00; ROS: Reactive superoxide species score (HL60 cells): 0.99; CHI: Cell Health Index (HL60 cells): 0.88 |
| C#Cc1cc(Nc2ncnc3cc(OC)c(OC)cc23)ccc1Cl [Compound 45] | 0.018 µM | 35 µM | > 100 µM | 65 % of control | 100 % of control | 100 % of control | 89 % of control | 120 % of control | 115 % of control | 91 % of control | 102 % of control | 71 % of control | 92 % of control | > 100 µM | 60 µM | 74 µM | 0.10 | 1.00 | 0.51 | 0.079 | IC50 (EGFR; in-cell EGFR inhibition): < 0.1 µM; MMP: Mitochondrial membrane depolarization score (HL60 cells): 0.48; NMI1: Nuclear membrane integrity 1 score (HL60 cells): 0.60; NMI2: Nuclear membrane integrity 2 score (HL60 cells): 0.40; ROS: Reactive superoxide species score (HL60 cells): 0.77; CHI: Cell Health Index (HL60 cells): 0.60 |
